We go through three compounds from US7129398B2, “Reversible male sterility in transgenic plants by expression of a GA-insensitive mutant protein, gai” (Monsanto Technology LLC, priority 2001, dated 2006).

The assay relates to male sterile transgenic plants (pMON42169, TA29-gai). The experiment in a line: Fertility restoration of gai male sterile transgenic tobacco plants by chemical spray. It counts as in vivo, Nicotiana tabacum. The note with it: for restoration of male fertility: aqueous 0.25% Sylgard 309; for Seed weight: mean of 5 seed sets ± SE. The protocol:
Kanamycin resistant F1 seedlings were transferred to soil and grown to flowering stage. After male sterility in the first few flowers was observed, plants from each lines were divided into four groups to receive different treatments every other day. One group received 15 mg of kinetin (a synthetic cytokinin) (Sigma) per plant, while the other two groups received either 10 mg of GA3 (Sigma) or 10 mg of TDZ (Sigma) per plant. The chemicals are in an aqueous solution containing 0.25% of Sylgard 309 surfactant (Willbur-Ellis, Fresno, Calif.) and the last group received surfactant only. The applications continued for two weeks. In another experiment, F1 plants from several male sterile transgenic lines were selected based on resistance to kanamycin and grown to flowering to verify the inheritance of the male sterile phenotype. Each plant was then sprayed with a solution containing 15 mg of kinetin every other day for two weeks. The plants continued to develop male sterile flowers until 10 days after the first application of kinetin. At 10 days post-application, the flowers that developed were male fertile. Flowers from treated plants began visibly shedding pollen whereas untreated flowers remained sterile. Under greenhouse growth conditions, the transition from stage −3 to stage 12 for a tobacco floral bud occurred in approximately 10 days. It appeared that for effective fertility restoration, kinetin needed to be applied prior to stage −2, which coincided with the onset of the TA29 promoter.

Setting [1] is: F1 male sterile transgenic tobacco, 10 mg per plant every other day for two weeks.

Structures are written as SMILES.

`C=C1C[C@]23C[C@@]1(O)CC[C@H]2[C@@]12C=C[C@H](O)[C@@](C)(C(=O)O1)[C@H]2[C@@H]3C(=O)O` [GA3]: under setting [1], the “restoration of anther development” value is given as “did not restore the anther development” and the “restoration of male fertility” value is “remained male sterile”.
`O=C(Nc1ccccc1)Nc1cnns1` [TDZ]: the “restoration of male fertility” value under setting [1] was “did not restore the fertility”.
With `c1coc(CNc2ncnc3[nH]cnc23)c1` [kinetin], for the setting “15 mg per plant every other day for two weeks”, the “persistence of production of male fertile flowers post-application” value is 11 days. Besides, where the note is “15 mg per plant every other day for two weeks, F1 male sterile transgenic tobacco lines”, the “time after first application until developing flowers were male fertile” value was 10 days. Where the note is “F1 male sterile transgenic tobacco, 15 mg per plant every other day for two weeks”, the “restoration of male fertility” value is “shed pollen and set seeds”. For the same compound, the Seed weight (event 782 (S): selfing after fertility restoration) came to 113.0 ± 18.9 mg and the Seed weight (event 790 (S): selfing after fertility restoration) is listed as 110.2 ± 13.5 mg. Besides, the “morphology and seed set of restored flowers” value (kinetin-restored flowers of male sterile transgenic tobacco) is recorded as “morphologically normal but also had typical seed sets”. Besides, where the note is “lines 788 and 790”, the “difference in seed weight, selfed seed of restored flowers vs crossed seed of sterile flowers and selfed seed of wild-type flowers” value is recorded as “no significant difference”.
